Test results: patent US7528148B2, “Pyrazolo[3,4-B]pyridine compounds, and their use as phosphodiesterase inhibitors” (Glaxo Group Limited, priority 2002, dated 2009)

target: T1, PDE4B (human recombinant) (Homo sapiens, UniProt Q07343); assay: PDE4B inhibition, radioactive SPA or IMAP fluorescence polarisation (FP) assay; type: biochemical; settings: one reading or average of ca. 2-6 readings, accurate only to about ±0.5 log unit, read-out: PDE4B pIC50 (±about 0.5) (converted)
T1 construct: made in house; host or cells: Saccharomyces cerevisiae strain GL62 (PDE-deficient)
Description: Human recombinant PDE4B, in particular the 2B splice variant thereof (HSPDE4B2B), is disclosed in WO 94/20079 and also M. M. McLaughlin et al., “A low Km, rolipram-sensitive, cAMP-specific phosphodiesterase from human brain: cloning and expression of cDNA, biochemical characterisation of recombinant protein, and tissue distribution of mRNA”, J. Biol. Chem., 1993, 268, 6470-6476. Human recombinant PDE4B was expressed in the PDE-deficient yeast Saccharomyces cerevisiae strain GL62. 100,000×g supernatant fractions of yeast cell lysates were used for PDE4B assays and inhibitor studies.
The ability of compounds to inhibit catalytic activity at PDE4B or 4D (human recombinant), PDE3 (from bovine aorta) or PDE5 (human recombinant) or PDE6 (from bovine retina) was determined by Scintillation Proximity Assay (SPA) in 96-well format. Test compounds (preferably as a solution in DMSO, e.g. about 2 microlitre (ul) volume of DMSO solution) were preincubated at ambient temperature (room temperature, e.g. 19-23° C.) in Wallac Isoplates (code 1450-514) with PDE enzyme in 50 mM Tris-HCl buffer pH 7.5, 8.3 mM MgCl2, 1.7 mM EGTA, 0.05% (w/v) bovine serum albumin for 10-30 minutes (usually 30 minutes). The enzyme concentration was adjusted so that no more than 20% hydrolysis of the substrate defined below occurred in control wells without compound, during the incubation. For PDE3, PDE4B and PDE4D assays, [5′,8-^3H]Adenosine 3′,5′-cyclic phosphate (Amersham Pharmacia Biotech, code TRK.559; or Amersham Biosciences UK Ltd, Pollards Wood, Chalfont St Giles, Buckinghamshire HP8 4SP, UK) was added to give 0.05 uCi per well and ˜10 nM final concentration. For the PDE5 and PDE6 assay [8-^3H]Guanosine 3′,5′-cyclic phosphate (Amersham Pharmacia Biotech, code TRK.392) was added to give 0.05 uCi per well and ˜36 nM final concentration. Plates, preferably containing approx. 100 ul volume of assay mixture, were mixed on an orbital shaker for 5 minutes and incubated at ambient temperature for 1 hour. Phosphodiesterase SPA beads (Amersham Pharmacia Biotech, code RPNQ 0150) were added (˜1 mg per well) to terminate the assay. Plates were sealed and shaken and allowed to stand at ambient temperature for 35 minutes to 1 hour (preferably 35 minutes) to allow the beads to settle. Bound radioactive product was measured using a WALLAC TRILUX 1450 Microbeta scintillation counter. For inhibition curves, 10 concentrations ([…]) of each compound were assayed. Curves were analysed using ActivityBase and XLfit (ID Businesss Solutions Limited, 2 Ocean Court, Surrey Research Park, Guildford, Surrey GU2 7QB, United Kindgom) Results were expressed as pIC50 values.
The ability of compounds to inhibit catalytic activity at PDE4B (human recombinant) or PDE4D (human recombinant) was determined by IMAP Fluorescence Polarisation (FP) assay (IAP Explorer kit, available from Molecular Devices Corporation, Sunnydale, Calif., USA; Molecular Devices code: R8062) in 384-well format. The IMAP FP assay is able to measure PDE activity in an homogenous, non-radioactive assay format. The FP assay uses the ability of immobilised trivalent metal cations, coated onto nanoparticles (tiny beads), to bind the phosphate group of Fl-AMP that is produced on the hydrolysis of fluorescein-labelled (Fl) cyclic adenosine mono-phosphate (Fl-cAMP) to the non-cyclic Fl-AMP form. […] Binding of Fl-AMP product to the beads (coated with the immobilised trivalent cations) slows the rotation of the bound Fl-AMP and leads to an increase in the fluorescence polarisation ratio of parallel to perpendicular light. Inhibition of the PDE reduces/inhibits this signal increase. […]

T1 sequence (Q07343 1-564 isoform Q07343-2): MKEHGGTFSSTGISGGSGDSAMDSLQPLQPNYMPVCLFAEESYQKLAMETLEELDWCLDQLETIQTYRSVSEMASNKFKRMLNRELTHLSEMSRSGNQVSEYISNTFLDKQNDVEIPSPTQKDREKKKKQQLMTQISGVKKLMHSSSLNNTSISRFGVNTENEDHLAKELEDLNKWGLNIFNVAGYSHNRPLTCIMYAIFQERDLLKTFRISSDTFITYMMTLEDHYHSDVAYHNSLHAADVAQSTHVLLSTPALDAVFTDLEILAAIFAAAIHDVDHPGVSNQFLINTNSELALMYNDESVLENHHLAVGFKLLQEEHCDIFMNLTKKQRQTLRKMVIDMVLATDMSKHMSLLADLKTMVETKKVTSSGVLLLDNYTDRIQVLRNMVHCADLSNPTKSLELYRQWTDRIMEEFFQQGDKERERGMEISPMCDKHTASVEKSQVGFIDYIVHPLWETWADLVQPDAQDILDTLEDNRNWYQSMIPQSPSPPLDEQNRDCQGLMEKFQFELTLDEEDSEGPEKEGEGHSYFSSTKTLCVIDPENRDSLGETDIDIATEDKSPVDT

Q: With `CCn1ncc2c(NC3CCCC3)c(-c3nnc(CS(C)(=O)=O)o3)cnc21` [Example 2, N-Cyclopentyl-1-ethyl-5-{5-[(methylsulfonyl)methyl]-1,3,4-oxadiazol-2-yl}-1H-pyrazolo[3,4-b]pyridin-4-amine] as the compound, how does the IC50 read?
A: Its IC50 is 0.794 to 31.6 nM.

Q: For `CCn1ncc2c(NC3CCCC3)c(-c3nnc(C(C)C)s3)cnc21` [Example 6, N-Cyclopentyl-1-ethyl-5-(5-isopropyl-1,3,4-thiadiazol-2-yl)-1H-pyrazolo[3,4-b]pyridin-4-amine], which IC50 is on record?
A: The IC50 was 7.94 nM.

Q: For `CCn1ncc2c(Nc3ccc(F)cc3)c(-c3nc(C)no3)cnc21` [Example 7, 1-Ethyl-N-(4-fluorophenyl)-5-(3-methyl-1,2,4-oxadiazol-5-yl)-1H-pyrazolo[3,4-b]pyridin-4-amine], which IC50 is on record?
A: The IC50 was 63.1 to 251 nM.

Q: Which IC50 does the source give for `CCn1ncc2c(NC3CCCCC3)c(-c3nnc(C(C)C)o3)cnc21` [Example 10, N-Cyclohexyl-1-ethyl-5-(5-isopropyl-1,3,4-oxadiazol-2-yl)-1H-pyrazolo[3,4-b]pyridin-4-amine] here?
A: Its IC50 is 6.31 nM.

Q: How did the IC50 turn out when `CCn1ncc2c(NCC(C)C)c(-c3nnc(C)o3)cnc21` [Example 12, 1-Ethyl-N-isobutyl-5-(5-methyl-1,3,4-oxadiazol-2-yl)-1H-pyrazolo[3,4-b]pyridin-4-amine] was run?
A: Its IC50 is 12.6 nM.

Q: How did the IC50 turn out when `CCn1ncc2c(NC3CCCCC3)c(-c3nnc(CS(C)(=O)=O)o3)cnc21` [Example 24, N-Cyclohexyl-1-ethyl-5-{5-[(methylsulfonyl)methyl]-1,3,4-oxadiazol-2-yl}-1H-pyrazolo[3,4-b]pyridin-4-amine] was run?
A: The IC50 was 6.31 nM.

Q: With `CCn1ncc2c(N[C@@H](C)C(C)C)c(-c3nnc(CS(C)(=O)=O)o3)cnc21` [Example 26, N-[(1S)-1,2-dimethylpropyl]-1-ethyl-5-{5-[(methylsulfonyl)methyl]-1,3,4-oxadiazol-2-yl}-1H-pyrazolo[3,4-b]pyridin-4-amine] as the compound, how does the IC50 read?
A: Its IC50 is 0.794 to 31.6 nM.

Q: `CCn1ncc2c(NC3CCOCC3)c(-c3nnc(C4(C)COC4)o3)cnc21` [Example 34, 1-Ethyl-5-[5-(3-methyloxetan-3-yl)-1,3,4-oxadiazol-2-yl]-N-(tetrahydro-2H-pyran-4-yl)-1H-pyrazolo[3,4-b]pyridin-4-amine] was tested. Which IC50 did it give?
A: Its IC50 is 0.794 to 31.6 nM.

Q: How did the IC50 turn out when `CCn1ncc2c(NC3CCOCC3)c(-c3nnc(CN4CCOCC4)o3)cnc21` [Example 39, 1-Ethyl-5-[5-(morpholin-4-ylmethyl)-1,3,4-oxadiazol-2-yl]-N-(tetrahydro-2H-pyran-4-yl)-1H-pyrazolo[3,4-b]pyridin-4-amine] was run?
A: Its IC50 is 0.794 to 31.6 nM.

Q: With `CCn1ncc2c(NC3CCOCC3)c(C3=NC(C)CO3)cnc21` (stereo not shown) [Example 42, 1-Ethyl-5-(4-methyl-4,5-dihydro-1,3-oxazol-2-yl)-N-(tetrahydro-2H-pyran-4-yl)-1H-pyrazolo[3,4-b]pyridin-4-amine] as the compound, how does the IC50 read?
A: The IC50 was 5.01 nM.

Q: `CCCn1ncc2c(NC3CCOCC3)c(-c3nnc(C)o3)cnc21` [Example 43, 1-n-Propyl-5-(5-methyl-1,3,4-oxadiazol-2-yl)-N-(tetrahydro-2H-pyran-4-yl)-1H-pyrazolo[3,4-b]pyridin-4-amine] was tested. Which IC50 did it give?
A: Its IC50 is 63.1 to 251 nM.

Q: How did the IC50 turn out when `CCn1ncc2c(NC3CCOCC3)c(-c3nnc(C4CCCO4)o3)cnc21` (stereo not shown) [Example 44, 1-Ethyl-5-[5-(tetrahydrofuran-2-yl)-1,3,4-oxadiazol-2-yl]-N-(tetrahydro-2H-pyran-4-yl)-1H-pyrazolo[3,4-b]pyridin-4-amine] was run?
A: Its IC50 is 0.794 to 31.6 nM.

Q: `CCn1ncc2c(NC3CCN(C(C)=O)CC3)c(-c3nc(CN4CCOCC4)no3)cnc21` [Example 48, N-(1-Acetylpiperidin-4-yl)-1-ethyl-5-[3-(morpholin-4-ylmethyl)-1,2,4-oxadiazol-5-yl]-1H-pyrazolo[3,4-b]pyridin-4-amine] was tested. Which IC50 did it give?
A: The IC50 was 63.1 to 251 nM.

Q: With `CCn1ncc2c(NC3CCOCC3)c(C3=N[C@@H](c4ccccc4)CO3)cnc21` [Example 50, 1-Ethyl-5-[(4S)-4-phenyl-4,5-dihydro-1,3-oxazol-2-yl]-N-(tetrahydro-2H-pyran-4-yl)-1H-pyrazolo[3,4-b]pyridin-4-amine] as the compound, how does the IC50 read?
A: Its IC50 is 0.794 to 31.6 nM.

Q: Which IC50 does the source give for `CCn1ncc2c(NC3CCOCC3)c(-c3nc(C(=O)N4CCOCC4)co3)cnc21` [Example 59, 1-Ethyl-5-[4-(4-morpholinylcarbonyl)-1,3-oxazol-2-yl]-N-(tetrahydro-2H-pyran-4-yl)-1H-pyrazolo[3,4-b]pyridin-4-amine] here?
A: Its IC50 is 0.794 to 31.6 nM.

Q: `CCn1ncc2c(N(C)C3CCOCC3)c(-c3nnc(C)o3)cnc21` [Example 60, 1-Ethyl-N-methyl-5-(5-methyl-1,3,4-oxadiazol-2-yl)-N-(tetrahydro-2H-pyran-4-yl)-1H-pyrazolo[3,4-b]pyridin-4-amine] was tested. Which IC50 did it give?
A: Its IC50 is 63.1 to 251 nM.

Q: For `CCn1ncc2c(N[C@H]3CC[C@H](O)CC3)c(-c3nnc(C)o3)cnc21` [Example 61, trans-4-{[1-Ethyl-5-(5-methyl-1,3,4-oxadiazol-2-yl)-1H-pyrazolo[3,4-b]pyridin-4-yl]amino}cyclohexanol], which IC50 is on record?
A: Its IC50 is 63.1 to 251 nM.

Q: `CCn1ncc2c(NC3CCCOC3)c(-c3nnc(C)o3)cnc21` (stereo not shown) [Example 62, 1-Ethyl-5-(5-methyl-1,3,4-oxadiazol-2-yl)-N-(tetrahydro-2H-pyran-3-yl)-1H-pyrazolo[3,4-b]pyridin-4-amine] was tested. Which IC50 did it give?
A: The IC50 was 0.794 to 31.6 nM.

Q: Which IC50 does the source give for `CCn1ncc2c(NC3CCC(=O)CC3)c(-c3nnc(C)o3)cnc21` [Example 63, 4-{[1-Ethyl-5-(5-methyl-1,3,4-oxadiazol-2-yl)-1H-pyrazolo[3,4-b]pyridin-4-yl]amino}cyclohexanone] here?
A: The IC50 was 0.794 to 31.6 nM.

Q: With `CCCN(c1c(-c2nnc(C)o2)cnc2c1cnn2CC)C1CCOCC1` [Example 64, 1-Ethyl-5-(5-methyl-1,3,4-oxadiazol-2-yl)-N-n-propyl-N-(tetrahydro-2H-pyran-4-yl)-1H-pyrazolo[3,4-b]pyridin-4-amine] as the compound, how does the IC50 read?
A: Its IC50 is 63.1 to 251 nM.

Q: `CCn1ncc2c(NC3CCOCC3)c(-c3nnc(C4CCOCC4)o3)c(C)nc21` [Example 66, 1-Ethyl-6-methyl-N-(tetrahydro-2H-pyran-4-yl)-5-[5-(tetrahydro-2H-pyran-4-yl)-1,3,4-oxadiazol-2-yl]-1H-pyrazolo[3,4-b]pyridin-4-amine] was tested. Which IC50 did it give?
A: The IC50 was 0.794 to 31.6 nM.

Q: `CCn1ncc2c(NC3CCOCC3)c(-c3nnc(Cc4nonc4C)o3)cnc21` [Example 71, 1-Ethyl-5-{5-[(4-methyl-1,2,5-oxadiazol-3-yl)methyl]-1,3,4-oxadiazol-2-yl}-N-(tetrahydro-2H-pyran-4-yl)-1H-pyrazolo[3,4-b]pyridin-4-amine] was tested. Which IC50 did it give?
A: Its IC50 is 0.794 to 31.6 nM.

Q: How did the IC50 turn out when `CCn1ncc2c(NC3CCOCC3)c(-c3nnc(CN(C)C(C)=O)o3)cnc21` [Example 76, N-({5-[1-Ethyl-4-(tetrahydro-2H-pyran-4-ylamino)-1H-pyrazolo[3,4-b]pyridin-5-yl]-1,3,4-oxadiazol-2-yl}methyl)-N-methylacetamide] was run?
A: Its IC50 is 0.794 to 31.6 nM.

Q: With `CCn1ncc2c(NC3CCOCC3)c(-c3nnc(CC4CCOCC4)o3)cnc21` [Example 77, 1-Ethyl-N-(tetrahydro-2H-pyran-4-yl)-5-[5-(tetrahydro-2H-pyran-4-ylmethyl)-1,3,4-oxadiazol-2-yl]-1H-pyrazolo[3,4-b]pyridin-4-amine] as the compound, how does the IC50 read?
A: Its IC50 is 0.794 to 31.6 nM.

Q: How did the IC50 turn out when `CCn1ncc2c(NC3CCOCC3)c(-c3nc(CC(=O)N4CCCC4)no3)cnc21` [Example 84, 1-Ethyl-5-{3-[2-oxo-2-(1-pyrrolidinyl)ethyl]-1,2,4-oxadiazol-5-yl}-N-(tetrahydro-2H-pyran-4-yl)-1H-pyrazolo[3,4-b]pyridin-4-amine] was run?
A: The IC50 was 0.794 to 31.6 nM.
